Reference: ChEMBL document CHEMBL1157539, “Thousands of chemical starting points for antimalarial lead identification” (Nature, 2010)
Several values for one entry are separate records, joined by “and”; a condition that tells them apart may be missing. Equal values may be shown once.

Test system: Plasmodium falciparum
Assay: GSK_TCMDC: Inhibition of Plasmodium falciparum 3D7 in whole erythrocytes, using parasite LDH activity as an index of growth.
Format: functional, organism-based

Compound	XC50 (Plasmodium falciparum, 3D7)	XC50
NC(=O)c1ccc(NCC(=O)Nc2cccc(-c3cccc(-c4nc5ccccc5[nH]4)c3)c2)cc1	987 nM	–
COc1ccc(CCCCN2C(=O)C(c3ccccc3)(c3ccccc3)N=C2N)cc1	858 nM	–
CCN(CC)CCN1C(=O)C(O)(c2ccccc2Cl)c2c1cc(C(N)=O)cc2C(F)(F)F (stereo not drawn)	703 nM	–
CCN1CCN(c2cc(C)c3cc(NC(=O)c4ccc([N+](=O)[O-])c(C)c4)ccc3n2)CC1	654 nM	–
Cc1ccc(-n2cc(CNCC3CCN(CCO)CC3)c(-c3ccc(F)cc3)n2)cc1	2000 nM	–
CC(C)NCc1cccc(-c2cccc(NC(=O)c3cccc(C#N)c3)c2)c1	823 nM	–
O=C(/C=C/c1ccc(Cl)c(Cl)c1)NCCCCCN1CC[C@H](NC(=O)c2ccc3c(c2)OCO3)C1	942 nM	–
N#Cc1ccc2[nH]cc(CN3CCC4(CC3)CN(CCNCc3ccccc3)C(=O)O4)c2c1	1160 nM	–
Oc1ccccc1CN1CCC(CCOC(c2ccccc2)c2ccc(Cl)cc2)CC1 (stereo not drawn)	743 nM	–
O=S(=O)(c1csc2ccccc12)N(CCC(O)(C(F)(F)F)C(F)(F)F)Cc1cccc(O)c1	360 nM	–
Cc1cc(C)c(S(=O)(=O)N2CCCCC(c3cccc(C(F)(F)F)c3)=N2)c(C)c1	456 nM	–
CCCCN1Cc2c(n(CC(=O)Nc3ccccc3)c3cc(-c4ccccc4)nn3c2=O)C1=O	811 nM	–
Cc1nc(C)c(-c2ccc(Oc3ccc(OC(F)(F)F)cc3)cc2)c(OC(=O)c2ccc(CN(C)C)cc2)c1Cl	137 nM	–
CCOC(=O)c1ccc(NC(=O)Nc2ccc(Cn3ncc(N4CCCNCC4)c(Cl)c3=O)cc2)cc1	443 nM	–
CC(C)[C@H](NC(=O)c1ccc(O)c(-c2ccc(Cl)c(Cl)c2)c1)C(=O)NC1CCCCCC1	224 nM	–
Cc1cc2ccccc2n1CC(=O)N1CC(C(=O)N2CCCCC2)Oc2ccccc21 (stereo not drawn)	899 nM	–
Cc1cccc(NC(=O)c2ccc(C(=O)NC3CCN(CC4CCCCC4)CC3)cc2)c1	805 nM	–
CCCCCn1c(Sc2ccc(C#N)c([N+](=O)[O-])c2)nnc1-c1cccs1	777 nM	–
Cc1cc(N/N=C/c2ccccc2[N+](=O)[O-])c2cc(C(F)(F)F)ccc2n1	750 nM	–
CN1CCN(CCCCCCNc2c3ccccc3nc3ccccc23)CC1	722 nM	–
COc1ccccc1COc1c(C)nc(N)nc1N	706 nM	–
CC(C)(C)c1ccc2[nH]c(-c3ccc(/C=C/C(=O)NC4CCN(Cc5ccccc5)CC4)cc3)nc2c1	589 nM	–
CC[C@H](C)CNC(=O)c1cncc(-c2ccc(CN3CCC(N4CCCC4)CC3)cc2)c1	968 nM	–
O=C(O)c1ccc2c(c1)N(C(=O)CNCc1ccc(F)cc1)CC(=O)N2CCCc1ccccc1	919 nM	–
Cc1nc2nc(N)nc(N)c2c(C)c1Cc1ccc([N+](=O)[O-])cc1	438 nM	–

Compound	XC50 (Plasmodium falciparum, 3D7)	XC50
O=C(CCCc1ccccc1)Nc1cccc(N2CCC(N3CCN(c4ccccc4O)CC3)CC2)c1	786 nM	–
Cc1cc(N[C@@H](Cc2ccccc2)C(=O)NCCOc2ccccc2)nc(NCCc2ccccn2)n1	1520 nM	–
Cc1cccc2nc(-c3cccc(-c4cccc(NC(=O)Nc5ccc(F)c(F)c5F)c4)c3)[nH]c12	108 nM	–
CC(C)CNCc1cccc(-c2ccc(CN(C(=O)NC3CCCCC3)C3CCN(Cc4ccccc4)CC3)cc2)c1	763 nM	–
CCN1CCCC1CNC(=O)c1cc2c(-c3ccc(Cl)cc3)nn(C)c2s1 (stereo not drawn)	788 nM	–
Cc1ccoc1C(=O)Nc1ccc(-c2cccc(-c3nc4cccc(C)c4[nH]3)c2)cc1	726 nM	–
Cc1cccc2nc(-c3ccc(-c4ccc(CN5CCN(c6ccncc6)CC5)cc4)cc3)[nH]c12	163 nM	–
COc1ccccc1-c1csc(C(=O)NCC2CCN(Cc3ccc(C(C)(C)C)cc3)C2)c1 (stereo not drawn)	1110 nM	–
CC1(C)N=C(N)N=C(N)N1c1ccc([N+](=O)[O-])cc1	234 nM	–
Cc1nc(N)nc(N)c1CCCOc1cccc(Cl)c1	476 nM	–
COc1ccc(NC(=O)[C@H](CC(C)C)Nc2ccnc(NCCc3ccc(F)cc3)n2)cc1	1600 nM	–
COc1ccc(CNCc2ccccc2)cc1-c1ccc(S(=O)(=O)NCCN2CCCC2)c(F)c1	1140 nM	–
O=S(=O)(c1cccc(Cl)c1F)N(CCC(O)(C(F)(F)F)C(F)(F)F)Cc1cccc(O)c1	918 nM	–
CN1CCN(c2ccnc3ccc(NC(=O)Nc4ccc(-c5ccncc5)c(C#N)c4)cc23)CC1	158 nM	–
COc1ccc(-c2cccc(NC(=O)c3cccc(F)c3)c2)cc1CN1CCCN(C)CC1	603 nM	–
Cc1cccc2nc(-c3ccc(-c4ccc(CN5CCC(CCN6CCCCC6)CC5)cc4)cc3)[nH]c12	144 nM	–
N#Cc1ccccc1S(=O)(=O)N1CCCC(CNC(=O)[C@H](CC2CCCCC2)NC(=O)c2cc3ccccc3s2)C1 (stereo partly drawn)	515 nM	–
NC1CCN(Cc2cccc(-c3ccc(-c4nc5cc(F)ccc5[nH]4)cc3)c2)C1 (stereo not drawn)	596 nM	–
CCCc1cc(Cc2cnc(N)nc2N)cc(CCC)c1OC	893 nM	–
COc1cc2nc(N(C)C)nc(Nc3ccc4c(cnn4Cc4ccccc4)c3)c2cc1OC	44 nM	–
CCn1cnc2c(N3CCCS3(=O)=O)cc(C(=O)N[C@@H](Cc3ccccc3)[C@H](O)CNC(C)(C)c3cccc(C(F)(F)F)c3)cc21	227 nM	–
CCNCc1ccc(-c2cc3ncnc(Nc4ccc(OCc5cccc(F)c5)c(Cl)c4)c3s2)[nH]1	109 nM	–
CNC(=O)COc1cc(C)c(C2CCN(CCCCNC(=O)c3ccc(-c4ccc(C(F)(F)F)cc4)cc3)CC2)cc1C	868 nM	–
Cc1nc(Nc2ccc(F)cc2)nc(N2CCc3cc(O)ccc3C2C)c1C (stereo not drawn)	754 nM	–
COc1ccccc1CCNc1nc(C)cc(N[C@@H](Cc2ccccc2)C(=O)Nc2ccccc2)n1	1020 nM	–

Compound	XC50 (Plasmodium falciparum, 3D7)	XC50
O=C(NCc1ccc(C(F)(F)F)cc1)c1cccc(-c2nnc(-c3cccc(-c4cncnc4)c3)o2)c1	544 nM	–
CCCc1cc(=O)[nH]c(-n2nc(C)cc2NC(=O)c2cc3ccccc3o2)n1	1110 nM	–
Cc1cccc(N2CCN(Cc3cc(Cl)ccc3O)CC2)c1C	771 nM	–
Nc1c(Cl)cc(C(O)CNCCCCCOCCc2ccccc2)cc1C(F)(F)F (stereo not drawn)	978 nM	–
CCN(CC)CCNc1ccnc2[nH]c3ccc([N+](=O)[O-])cc3c12	198 nM	–
O=c1cc(NCCCNCc2sc(Br)c(Br)c2Br)[nH]c2ccccc12	1010 nM	–
CCn1c(-c2nonc2N)nc2c(-c3cc4ccccc4s3)ncc(C(=O)N3CCC(N)C3)c21 (stereo not drawn)	871 nM	–
CC(C)C(C(=O)n1cc2c(ccc3nc(N)nc(N)c32)n1)C(C)C	790 nM	–
Cc1n[nH]c2ccc(-c3cc(OC[C@@H](N)Cc4ccccc4)cnc3-c3cc4ccccc4s3)cc12	810 nM	–
CC(=O)c1ccc(N2CCN(C(=O)Nc3ccc(Cl)cc3)CC2)cc1	979 nM	–
Cc1cc(N(C)C2CCN(C)C2)nc(Nc2ccccc2Cl)n1 (stereo not drawn)	754 nM	–
O=C(CCc1cccnc1)Nc1ccc(-c2cccc(-c3nc4cc(F)ccc4[nH]3)c2)cc1	922 nM	–
COc1ccc(Br)cc1C1C2C(=O)N(c3ccc(Br)cc3)C(=O)C2C2(C(=O)O)CC(OCc3ccccc3)CN12 (stereo not drawn)	195 nM	–
CC(=NNC(=N)N)c1ccc2ccc3ccccc3c2c1	892 nM	–
COc1cc(C2=NN(S(=O)(=O)c3c(Cl)cc(Cl)cc3Cl)CCCC2)ccc1Cl	291 nM	–
CCOc1cc(C(=O)NCc2cc(Cl)cc(Cl)c2)ccc1-c1nc2cc(Cl)ccc2[nH]1	730 nM	–
CC(C)CC(=O)N1CCNC[C@@H]1C(=O)NCCSCc1c(F)cccc1Cl	1200 nM	–
O=C(Cc1c[nH]cn1)Nc1cccc(-c2cccc(-c3nc4cc(C(F)(F)F)ccc4[nH]3)c2)c1	225 nM	–
COc1ccc(OC)c(NC(=O)CSc2nc(-c3ccccc3Cl)ns2)c1	835 nM	–
CN1CCN(c2cc(-c3cccnc3)nc(-c3ccncc3)n2)CC1	554 nM	–
CC(C)(C)c1cc(Cn2ccnc2)cc(C(C)(C)C)c1O	1040 nM	–
O=C(Nc1ccccc1OC(F)(F)F)NC1CCC(CN2CCC(c3c[nH]c4ccccc34)CC2)CC1 (stereo not drawn)	–	369 nM and 800 nM
CNC(=O)c1ccccc1Nc1nc(Nc2ccc(C(=O)O)cc2)ncc1Cl	950 nM	–
COc1ccc(C[C@@H](C)NC[C@H](O)c2cccc(Cl)c2)cc1F	867 nM	–
CN1CCCC(CN2CCN(Cc3cccc(-c4ccc(-c5nc6ccccc6[nH]5)cc4)c3)CC2)C1 (stereo not drawn)	157 nM	–

Compound	XC50 (Plasmodium falciparum, 3D7)	XC50
CC(=O)NCCNc1cc(N2CCc3ncnc(Nc4ccc(OCc5c(F)cccc5F)c(Cl)c4)c3C2)ncn1	160 nM	–
CCCCCCn1c2c(c(=N)c3c1CCC3)CCCC2	291 nM	–
Nc1nccc2ccc(-c3ccc4ncccc4c3)cc12	112 nM	–
Cc1n[nH]c2cc(F)c(-c3cc(OC[C@@H](N)Cc4ccccc4)cnc3-c3ccoc3)cc12	1040 nM	–
Cc1cc(F)ccc1Nc1nc(N(C)c2ccccc2)c2cccc(O)c2n1	957 nM	–
CCC[C@@H]([C@@H](CC(C)C)C(=O)N[C@@H](CCCCNC(=O)OCc1ccccc1)C(=O)Nc1ncccn1)N(O)C=O	59.1 nM	–
Cc1ccc2c(N/N=C/c3ccccc3[N+](=O)[O-])cc(C)nc2c1	416 nM	–
Nc1ncc(-c2ccc(Br)cc2)c(N)n1	920 nM	–
CC(C)c1ccc(CN2CCC(CNC(=O)c3cc(-c4ccc(N(C)C)cc4)cs3)C2)cc1 (stereo not drawn)	1250 nM	–
Cc1cccc2nc(-c3ccc(-c4ccc(CNCc5cccc(N)c5)cc4)s3)[nH]c12	751 nM	–
Cc1ccc(C(=O)Nc2ccnc(N(C)C3CCN(Cc4cccc(O)c4)CC3)c2)cn1	1880 nM	–
Cc1onc(-c2ccccc2)c1-c1nc(NCc2ccccc2Cl)no1	699 nM	–
O=C(Nc1ccccc1)N(Cc1cccc(-c2ccc(CNCCc3ccccc3)cc2)c1)C1CCN(Cc2ccccc2)CC1	349 nM	–
COc1cc2c(cc1N(C(C)C)S(=O)(=O)c1sc3ccc(Cl)cc3c1C)CCNCC2	1050 nM	–
Cc1ccc2c(NC(=O)Nc3ccc(N(C)C)cc3)cc(C)nc2c1	820 nM	–
O=C(Nc1ccccc1Oc1ccccc1)NC1CCN(c2ccnc3cc(Cl)ccc23)C1 (stereo not drawn)	167 nM	–
COc1cccc(CC(=O)N2CCC(n3c(C)nc4ccc(F)cc43)CC2)c1	906 nM	–
COCCNCc1cccc(-c2ccc3c(Nc4ccc(Oc5ccccc5)cc4)ccnc3c2)c1	517 nM	–
N#Cc1ccc2c(c1)CCN(CCC1CCC(NC(=O)c3cc4ccccc4[nH]3)CC1)CC2 (stereo not drawn)	1010 nM	–
CCCC(CNCc1ccccc1)CNc1cc(=O)c2ccccc2[nH]1 (stereo not drawn)	1020 nM	–
Cc1cc2nc(-c3ccc(OCC(=O)NCc4cccc(C(F)(F)F)c4)cc3)[nH]c2cc1C	988 nM	–
CC[C@H]1CN2CCc3cc(OC)c(OC)cc3[C@@H]2C[C@@H]1C[C@H]1NCCc2c1cc(OC)c(OC)c2Br	650 nM	–
CC1(C)NC(N)=NC(=N)N1OCc1ccc(-c2ccccc2)cc1	3.2 nM	–
